A word on the pIC50: it is −log10 of the IC50, conventionally taken in molar units.

pIC50: −log10 of the molar value.

This is an account of results in US8802688B2, “Substituted acetyl-coa carboxylase inhibitors” (Pfizer Inc., priority 2011, dated 2014).

The target in assay [1] is T1, recombinant human ACC1 (rhACC1) (Homo sapiens, UniProt Q13085, DEL44-44).
T1 construct: recombinant baculovirus containing full length human ACC1 cDNA; made in house; host or cells: SF9 insect cells, recombinant baculovirus
In words: recombinant hACC1 Transcreener ADP detection FP assay. The note with it: 50 μM ATP, 30 μM acetyl-CoA. Type of assay: biochemical. How it is done: (§1) For example direct inhibition of ACC activity, for the compound of Formula (I) was determined using preparations of recombinant human ACC1 (rhACC1) and recombinant human ACC2 (rhACC2). Representative sequences of the recombinant human ACC1 and ACC2 that can be used in the assay are provided herein as SEQ ID NO. 1 and SEQ. ID NO. 2, respectively.
[1] Preparation of rhACC1. Two liters of SF9 cells, infected with recombinant baculovirus containing full length human ACC1 cDNA, were suspended in ice-cold lysis buffer (25 mM Tris, pH 7.5; 150 mM NaCl; 10% glycerol; 5 mM imidazole (EMD Bioscience; Gibbstown, N.J.); 2 mM TCEP (BioVectra; Charlottetown, Canada); Benzonase nuclease (10000 U/100 g cell paste; Novagen; Madison, Wis.); EDTA-free protease inhibitor cocktail (1 tab/50 mL; Roche Diagnostics; Mannheim, Germany). Cells were lysed by 3 cycles of freeze-thaw and centrifuged at 40,000×g for 40 minutes (4° C.). Supernatant was directly loaded onto a HisTrap FF crude column (GE Healthcare; Piscataway, N.J.) and eluted with an imidazole gradient up to 0.5 M over 20 column volumes (CV). ACC1-containing fractions were pooled and diluted 1:5 with 25 mM Tris, pH 7.5, 2 mM TCEP, 10% glycerol and direct loaded onto a CaptoQ (GE Healthcare) column and eluted with an NaCl gradient up to 1 M over 20 CV's. Phosphate groups were removed from purified ACC1 by incubation with lambda phosphatase (100 U/10 μM target protein; New England Biolabs; Beverly, Mass.) for 14 hours at 4° C.; okadaic acid was added (1 μM final concentration; Roche Diagnostics) to inhibit the phosphatase. Purified ACC1 was exchanged into 25 mM Tris, pH 7.5, 2 mM TCEP, 10% glycerol, 0.5 M NaCl by 6 hour dialysis at 4° C. Aliquots were prepared and frozen at −80° C.
[2] Measurement of rhACC1 inhibition. hACC1 was assayed in a Costar #3676 (Costar, Cambridge, Mass.) 384-well plate using the Transcreener ADP detection FP assay kit (Bellbrook Labs, Madison, Wis.) using the manufacturer's recommended conditions for a 50 μM ATP reaction. The final conditions for the assay were 50 mM HEPES, pH 7.2, 10 mM MgCl2, 7.5 mM tripotassium citrate, 2 mM DTT, 0.1 mg/mL BSA, 30 μM acetyl-CoA, 50 μM ATP, and 10 mM KHCO3 Typically, a 10 μl reaction was run for 120 min at 25° C., and 10 μl of Transcreener stop and detect buffer was added and the combination incubated at room temp for an additional 1 hour. The data was acquired on a Envision Fluorescence reader (Perkinelmer) using a 620 excitation Cy5 FP general dual mirror, 620 excitation Cy5 FP filter, 688 emission (S) and a 688 (P) emission filter.
(§2) The results using the recombinant hACC1 and recombinant hACC2 Transcreener assays described above are summarized in the table below for the Compounds of Formula (I) exemplified in the Examples above.

Assay [2] addresses T2, recombinant human ACC2 (rhACC2) (Homo sapiens, UniProt O00763, V2141I).
T2 construct: a full length Cytomax clone of ACC2 was purchased from Cambridge Bioscience Limited; made in house; host or cells: CHO cells, tetracycline-induced (PcDNA5 FRT TO-TOPO)
In words: recombinant hACC2 Transcreener ADP detection FP assay. The assay is classed as biochemical. The settings on record: 50 μM ATP, 30 μM acetyl-CoA. The method, then:
as §1
[3] Preparation of rhACC2. Human ACC2 inhibition was measured using purified recombinant human ACC2 (hrACC2). Briefly, a full length Cytomax clone of ACC2 was purchased from Cambridge Bioscience Limited and was sequenced and subcloned into PcDNA5 FRT TO-TOPO (Invitrogen, Carlsbad, Calif.). The ACC2 was expressed in CHO cells by tetracycline induction and harvested in 5 liters of DMEM/F12 with glutamine, biotin, hygromycin and blasticidin with 1 μg/mL tetracycline (Invitrogen, Carlsbad, Calif.). The conditioned medium containing ACC2 was then applied to a Softlink Soft Release Avidin column (Promega, Madison, Wis.) and eluted with 5 mM biotin. 4 mgs of ACC2 were eluted at a concentration of 0.05 mg/mL (determined by A280) with an estimated purity of 95% ([…]). The purified ACC2 was dialyzed in 50 mM Tris, 200 mM NaCl, 4 mM DTT, 2 mM EDTA, and 5% glycerol. The pooled protein was frozen and stored at −80° C., with no loss of activity upon thawing. For measurement of ACC2 activity and assessment of ACC2 inhibition, test compounds were dissolved in DMSO and added to the rhACC2 enzyme as a 5× stock with a final DMSO concentration of 1%.
[4] Measurement of human ACC2 inhibition. hACC2 was assayed in a Costar #3676 (Costar, Cambridge, Mass.) 384-well plate using the Transcreener ADP detection FP assay kit (Bellbrook Labs, Madison, Wis.) using the manufacturer's recommended conditions for a 50 uM ATP reaction. The final conditions for the assay were 50 mM HEPES, pH 7.2, 5 mM MgCl2, 5 mM tripotassium citrate, 2 mM DTT, 0.1 mg/mL BSA, 30 μM acetyl-CoA, 50 μM ATP, and 8 mM KHCO3. Typically, a 10 μl reaction was run for 50 min at 25° C., and 10 μl of Transcreener stop and detect buffer was added and the combination incubated at room temp for an additional 1 hour. The data was acquired on an Envision Fluorescence reader (Perkinelmer) using a 620 excitation Cy5 FP general dual mirror, 620 excitation Cy5 FP filter, 688 emission (S) and a 688 (P) emission filter.
as §2

T2 sequence (O00763 whole entry V2141I): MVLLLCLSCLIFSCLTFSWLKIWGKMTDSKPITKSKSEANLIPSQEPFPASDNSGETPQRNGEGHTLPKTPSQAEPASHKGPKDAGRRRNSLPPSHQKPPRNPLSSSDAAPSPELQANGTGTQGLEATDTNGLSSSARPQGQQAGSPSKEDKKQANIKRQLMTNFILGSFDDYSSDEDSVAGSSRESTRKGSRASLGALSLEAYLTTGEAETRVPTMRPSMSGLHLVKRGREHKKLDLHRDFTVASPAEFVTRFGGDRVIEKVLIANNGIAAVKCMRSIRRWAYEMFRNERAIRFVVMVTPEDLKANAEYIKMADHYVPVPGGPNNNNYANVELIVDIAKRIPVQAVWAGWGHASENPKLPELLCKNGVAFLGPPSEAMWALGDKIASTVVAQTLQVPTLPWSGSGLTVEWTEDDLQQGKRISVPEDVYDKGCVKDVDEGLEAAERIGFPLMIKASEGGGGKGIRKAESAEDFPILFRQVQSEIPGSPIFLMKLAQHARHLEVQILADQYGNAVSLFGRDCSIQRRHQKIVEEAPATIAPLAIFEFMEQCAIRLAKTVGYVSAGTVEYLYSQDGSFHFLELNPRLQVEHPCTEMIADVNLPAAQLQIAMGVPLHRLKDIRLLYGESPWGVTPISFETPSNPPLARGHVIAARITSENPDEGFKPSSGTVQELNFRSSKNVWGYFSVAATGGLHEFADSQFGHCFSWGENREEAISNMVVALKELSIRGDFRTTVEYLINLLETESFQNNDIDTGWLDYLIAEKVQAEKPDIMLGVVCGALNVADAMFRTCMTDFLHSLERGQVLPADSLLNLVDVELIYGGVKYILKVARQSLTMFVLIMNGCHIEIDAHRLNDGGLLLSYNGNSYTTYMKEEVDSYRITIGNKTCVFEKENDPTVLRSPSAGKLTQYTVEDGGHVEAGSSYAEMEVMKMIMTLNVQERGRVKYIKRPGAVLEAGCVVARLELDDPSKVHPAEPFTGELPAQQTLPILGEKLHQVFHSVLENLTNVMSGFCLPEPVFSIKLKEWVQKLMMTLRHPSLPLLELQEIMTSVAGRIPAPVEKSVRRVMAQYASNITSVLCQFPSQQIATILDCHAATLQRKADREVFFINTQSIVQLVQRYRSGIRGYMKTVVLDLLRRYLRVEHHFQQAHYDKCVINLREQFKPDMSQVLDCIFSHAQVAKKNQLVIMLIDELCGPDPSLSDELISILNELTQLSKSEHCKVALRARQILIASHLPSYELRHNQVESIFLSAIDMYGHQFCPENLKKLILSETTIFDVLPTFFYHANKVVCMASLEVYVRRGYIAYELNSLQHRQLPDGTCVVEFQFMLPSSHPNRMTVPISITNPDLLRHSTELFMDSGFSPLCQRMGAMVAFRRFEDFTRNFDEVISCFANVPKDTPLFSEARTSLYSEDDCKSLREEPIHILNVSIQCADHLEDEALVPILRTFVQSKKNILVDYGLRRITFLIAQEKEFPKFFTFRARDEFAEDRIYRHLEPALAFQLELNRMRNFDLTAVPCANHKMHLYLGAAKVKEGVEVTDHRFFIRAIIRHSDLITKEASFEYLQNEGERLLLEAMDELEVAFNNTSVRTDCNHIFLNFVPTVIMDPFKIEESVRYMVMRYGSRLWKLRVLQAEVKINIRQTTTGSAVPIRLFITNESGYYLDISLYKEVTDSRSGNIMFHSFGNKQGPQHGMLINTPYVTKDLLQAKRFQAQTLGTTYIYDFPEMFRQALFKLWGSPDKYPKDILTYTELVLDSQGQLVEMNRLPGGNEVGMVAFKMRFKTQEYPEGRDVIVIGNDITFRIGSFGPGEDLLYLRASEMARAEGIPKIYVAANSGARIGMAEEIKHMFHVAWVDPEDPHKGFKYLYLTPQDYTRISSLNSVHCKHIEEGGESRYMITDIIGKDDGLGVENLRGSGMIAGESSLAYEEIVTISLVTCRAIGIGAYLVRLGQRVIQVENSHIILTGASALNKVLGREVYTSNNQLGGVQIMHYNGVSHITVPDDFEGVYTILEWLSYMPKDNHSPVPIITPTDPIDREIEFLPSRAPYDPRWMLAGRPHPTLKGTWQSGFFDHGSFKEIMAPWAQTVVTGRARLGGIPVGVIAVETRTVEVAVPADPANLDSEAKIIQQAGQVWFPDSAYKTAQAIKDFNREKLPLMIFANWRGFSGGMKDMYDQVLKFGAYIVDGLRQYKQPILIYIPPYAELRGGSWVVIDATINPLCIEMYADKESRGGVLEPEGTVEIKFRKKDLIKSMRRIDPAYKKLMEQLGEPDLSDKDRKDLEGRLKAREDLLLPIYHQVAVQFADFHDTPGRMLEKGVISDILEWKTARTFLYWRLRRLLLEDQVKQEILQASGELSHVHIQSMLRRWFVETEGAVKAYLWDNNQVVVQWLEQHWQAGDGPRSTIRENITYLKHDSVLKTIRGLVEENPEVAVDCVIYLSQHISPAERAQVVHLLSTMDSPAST

As to `CC(C)n1ncc2c1C(=O)CC1(CCN(C(=O)c3cnc4[nH]c(C(N)=O)cc4c3)CC1)C2` [Example 19, 5-[(1-isopropyl-7-oxo-1,4,6,7-tetrahydro-1′H-spiro[indazole-5,4′-piperidin]-1′-yl)carbonyl]-1H-pyrrolo[2,3-b]pyridine-2-carboxamide], the values for the pIC50 in assay [1] and in assay [2] were 7.20 and 7.82, respectively.
For `CNc1nc2cc(C(=O)N3CCC4(CC3)CC(=O)c3c(cnn3C(C)C)C4)ccc2[nH]1` [Example 20, 1-isopropyl-1′-{[2-(methylamino)-1H-benzimidazol-5-yl]carbonyl}-1,4-dihydrospiro[indazole-5,4′-piperidin]-7(6H)-one], the values for the pIC50 in assay [1] and in assay [2] were 7.89 and 8.52, respectively.
For the compound `CC(C)n1ncc2c1C(=O)CC1(CCN(C(=O)c3ccc4[nH]c(C(N)=O)nc4c3)CC1)C2` [Example 21, 5-[(1-isopropyl-7-oxo-1,4,6,7-tetrahydro-1′H-spiro[indazole-5,4′-piperidin]-1′-yl)carbonyl]-1H-benzimidazole-2-carboxamide], the pIC50 in assay [1] is 7.33; in assay [2] it was 8.17.
Turning to `COc1cc2cc(C(=O)N3CCC4(CC3)CC(=O)c3c(cnn3C(C)C)C4)cnc2cc1C(N)=O` [Example 22, 3-[(1-isopropyl-7-oxo-1,4,6,7-tetrahydro-1′H-spiro[indazole-5,4′-piperidin]-1′-yl)carbonyl]-6-methoxyquinoline-7-carboxamide], the pIC50 was 7.52 in assay [1] and 8.16 in assay [2].
In the case of `CC(C)n1ncc2c1C(=O)CC1(CCN(C(=O)c3cnc4c(C#N)c[nH]c4c3)CC1)C2` [Example 23, 6-[(1-isopropyl-7-oxo-1,4,6,7-tetrahydro-1′H-spiro[indazole-5,4′-piperidin]-1′-yl)carbonyl]-1H-pyrrolo[3,2-b]pyridine-3-carbonitrile], the negative-log IC50 (pIC50) in assay [1] was 7.49; in assay [2] it was 7.82.
For `CC(C)n1ncc2c1C(=O)CC1(CCN(C(=O)c3cnc4ccc(OCC(N)=O)cc4c3)CC1)C2` [Example 24, 2-({3-[(1-isopropyl-7-oxo-1,4,6,7-tetrahydro-1′H-spiro[indazole-5,4′-piperidin]-1′-yl)carbonyl]quinolin-6-yl}oxy)acetamide], the negative-log IC50 (pIC50) was 7.37 in assay [1] and 7.70 in assay [2].
For `CC(C)n1ncc2c1C(=O)CC1(CCN(C(=O)c3ccc4ccc(N)nc4c3)CC1)C2` [Example 25, 1′-[(2-aminoquinolin-7-yl)carbonyl]-1-isopropyl-1,4-dihydrospiro[indazole-5,4′-piperidin]-7(6H)-one], the pIC50 in assay [1] was 7.92; in assay [2], 8.00.
Take `CC(C)(C)n1ncc2c1C(=O)CC1(CCN(C(=O)c3ccc4[nH]nc(C(N)=O)c4c3)CC1)C2` [Example 26]: the pIC50 in assay [1] is 8.13; in assay [2] it was 8.68.
Turning to `CC(C)(C)n1cc2c(n1)C(=O)CC1(CCN(C(=O)c3ccc4c(C(N)=O)n[nH]c4c3)CC1)C2` [Example 29], the pIC50 in assay [1] was 8.07; in assay [2], 8.77.
On the same counts, the results for `CC(C)(C)n1cc2c(n1)C(=O)CC1(CCN(C(=O)c3cnc4[nH]cc(C(N)=O)c4c3)CC1)C2` [Example 30] are 8.03 and 8.59.
For `CC(C)(C)n1cc2c(n1)C(=O)CC1(CCN(C(=O)c3ccc4[nH]c(C(N)=O)cc4c3)CC1)C2` [Example 32], the pIC50 in assay [1] is 8.09; in assay [2] it was 8.82.
On to `CC(C)(C)n1cc2c(n1)C(=O)CC1(CCN(C(=O)c3ccc4[nH]cc(C(N)=O)c4c3)CC1)C2` [Example 33], for which the pIC50 in assay [1] was 8.51; in assay [2] it was 9.00.
On to `CC(C)(C)n1cc2c(n1)C(=O)CC1(CCN(C(=O)c3ccc4cc(C(N)=O)[nH]c4c3)CC1)C2` [Example 34], for which the figures for the pIC50 in assay [1] and in assay [2] were 8.09 and 8.55, respectively.
On the same counts, the results for `CC(C)(C)n1cc2c(n1)C(=O)CC1(CCN(C(=O)c3ccc4[nH]c(N)nc4c3)CC1)C2` [Example 35] are 7.92 and 8.85.
The matching figures for `CCNC(=O)c1n[nH]c2ccc(C(=O)N3CCC4(CC3)CC(=O)c3nn(C(C)(C)C)cc3C4)cc12` [Example 36]: 8.40 and 8.77.
Consider `CNC(=O)c1n[nH]c2ccc(C(=O)N3CCC4(CC3)CC(=O)c3nn(C(C)(C)C)cc3C4)cc12` [Example 37], for which the figures for the pIC50 in assay [1] and in assay [2] were 8.54 and 8.89, respectively.
For `CC(C)(C)n1cc2c(n1)C(=O)CC1(CCN(C(=O)c3ccc4[nH]nc(C(=O)NCC(F)(F)F)c4c3)CC1)C2` [Example 38], the pIC50 in assay [1] was 8.37; in assay [2], 8.96.
On the same counts, the results for `CNc1nc2cc(C(=O)N3CCC4(CC3)CC(=O)c3nn(C(C)(C)C)cc3C4)ccc2[nH]1` [Example 39] are 8.01 and 8.82.
Take `CNc1ccc2ccc(C(=O)N3CCC4(CC3)CC(=O)c3nn(C(C)(C)C)cc3C4)cc2n1` [Example 40]: the results for the pIC50 in assay [1] and in assay [2] were 8.66 and 8.89, respectively.
On the same counts, the results for `CC(C)(C)n1cc2c(n1)C(=O)CC1(CCN(C(=O)c3ccc4c(C#N)n[nH]c4c3)CC1)C2` [Example 41] are 7.74 and 8.43.
`CC(C)(C)n1cc2c(n1)C(=O)CC1(CCN(C(=O)c3cnc4c(Cl)c[nH]c4c3)CC1)C2` [Example 42]: the pIC50 in assay [1] is 8.18; in assay [2] it was 8.74.
In the case of `CC(C)(C)n1cc2c(n1)C(=O)CC1(CCN(C(=O)c3ccc4[nH]nc(C#N)c4c3)CC1)C2` [Example 43], the pIC50 is 8.19 in assay [1] and 8.55 in assay [2].
On to `CC(C)(C)n1cc2c(n1)C(=O)CC1(CCN(C(=O)c3cnc4ccc(C(N)=O)cc4c3)CC1)C2` [Example 44], for which the pIC50 is 7.51 in assay [1] and 8.27 in assay [2].
In the case of `CC(C)(C)n1cc2c(n1)C(=O)CC1(CCN(C(=O)c3cnc4c(C(N)=O)c[nH]c4c3)CC1)C2` [Example 45, 6-[(2-tert-butyl-7-oxo-2,4,6,7-tetrahydro-1′H-spiro[indazole-5,4′-piperidin]-1′-yl)carbonyl]-1H-pyrrolo[3,2-b]pyridine-3-carboxamide], the pIC50 is 7.64 in assay [1] and 8.55 in assay [2].
